Experimental data reported in patent US20250281625A1, “FOLIC ACID-CONJUGATED AMINOCLAY BASED NANOCOMPOSITES FOR THE SITE-SPECIFIC DRUG DELIVERY, METHOD FOR THEIR PREPARATION AND THEIR USE” (Dongguk University Industry-Academic Cooperation Foundation, priority 2021, published 2025).

How the values were obtained:
[1] = in water; cited from earlier work
TNF-α = TNF-α concentration in colonic samples of colitis-induced mice (ELISA); format: in vivo, C57BL/6 mice; conditions: oral, 10 mg/kg once daily for 8 days, DSS colitis mice, compared to control group
Protocol: (§1) Before inducing colitis, 8-week-old C57BL/6 mice were raised under standard conditions at 21° C. to 22° C. in a 12-hour light/dark cycle for 7 days. On the day of the experiment (Day 0), mice were randomly divided into five groups: a healthy control group and four experimental groups [dextran sodium sulfate administration group (DSS), dextran sodium sulfate and phosphate-buffer saline (PBS) administration group (DSS+PBS), dextran sodium sulfate and infliximab administration group (DSS+IFX), and dextran sodium sulfate and EFA-AC-IFX administration group (DSS+EFA-AC-IFX)]. Colitis was induced in mice by adding 2.0% (w/v) dextran sodium sulfate to drinking water.
(§2) To investigate the therapeutic effect of nanoparticles, colitis-induced mice in each experimental group were orally administered with 200 μL of PBS, infliximab (10 mg/kg), or EFA-AC-IFX (10 mg/kg) once daily for 8 days. On Day 8, drinking water containing dextran sodium sulfate was replaced with pure water. During the experiment, changes in body weight, stool consistency, and the presence of blood in the stool or anus were checked daily. […]
The level of TNF-α, one of the important inflammatory mediators involved in the pathogenesis of ulcerative colitis, is increased by inducing colitis in mice. Therefore, the concentration of TNF-α in colonic samples obtained from each experimental group was quantified using a TNF-α ELISA kit.

colitis-induced mice = experiment: in vivo efficacy in dextran sodium sulfate colitis-induced mice; design: species or system C57BL/6 mice; conditions: oral, 10 mg/kg once daily for 8 days, DSS colitis mice, day 9
Protocol: as §1
as §2, with “water.” for “water. During the experiment, changes in body weight, stool consistency, and the presence of blood in the stool or anus were checked daily.”
To evaluate the therapeutic efficacy of EFA-AC-IFX for colitis, mouse colon tissues were histologically analyzed using hematoxylin-eosin (H&E) staining. […] The severity of colitis in each colonic section was assessed using a blinded approach by measuring mucosal features, such as epithelial damage, mucosal edema, and inflammatory cell infiltration of the mucosa.

For Nc1nc2ncc(CNc3ccc(C(=O)N[C@@H](CCC(=O)O)C(=O)O)cc3)nc2c(=O)[nH]1 [folic acid], the water solubility [1] is given as 0.0016 mg/g.

With Infliximab the “concentration of TNF-α in colonic samples” value (TNF-α) was “significantly increased compared to the control group” and the colon length (colitis-induced mice) was 6.2±0.25 cm.
